Test results reported in patent US20110263539A1, “SHIP 1 MODULATOR COMPOUNDS” (THE UNIVERSITY OF BRITISH COLUMBIA, priority 2006, published 2011).

Experiments:
SHIP enzyme = test: In vitro SHIP enzyme assay (Assay 1); assay type: biochemical; conditions: 100 μM inositol-1,3,4,5-tetrakisphosphate, Malachite Green; also: key: a ‘+’ indicates a positive result for desired activity; a ‘−’ indicates a negative result for desired activity
Description: Assay 1) In vitro testing in a SHIP enzyme assay. Test compounds were dissolved in a suitable solvent (e.g. EtOH, DMSO and others) and diluted into aqueous buffer (20 mM Tris HCl, pH 7.5 and 10 mM MgCl2). SHIP enzyme assays were performed in 96-well microtitre plates with 10 ng of enzyme/well in a total volume of 25 μL of 20 mM Tris HCl, pH 7.5 and 10 mM MgCl2. SHIP enzyme was incubated with test extracts (provided in solvent) or vehicle for 15 min at 23° C. before the addition of 100 μM inositol-1,3,4,5-tetrakisphosphate (Echelon Biosciences Inc, Salt Lake City, Utah). After 20 min at 37° C. and the amount of inorganic phosphate released assessed by the addition of Malachite Green reagent and absorbance measurement at 650 nm.
For in vitro testing in the SHIP enzyme assay, AQX-016A and Compound 100 were dissolved in EtOH and diluted into aqueous buffer (20 mM Tris HCl, pH 7.5 and 10 mM MgCl2). The actual concentration of drug in solution was determined by optical density measurement at 280 nm (λmax for both compounds) after high speed centrifugation at 14 000×g for 30 min to remove precipitated drug. For testing on cells, compounds were formulated in the carrier cyclodextrin (Cyclodex Technologies, High Springs, Fla.) at 6 mM (2 mg/mL). For oral administration to animals, compounds were dissolved in 100% cremophore EL (Sigma-Aldrich Canada, Oakville, Ontario) at 150 mM (50 mg/mL) prior to dilution to 6 mM in phosphate buffer saline. However, while these compounds caged in cyclodextrin or formulated in cremophore EL micelles were very soluble in aqueous solution, they could not be used in the SHIP enzyme assays because of interference from both cyclodextrin and cremophore EL.
N-terminal His6 tagged SHIP enzyme was expressed in mammalian 293T cells by transient transfection with pME18S-His-SHIP plasmid and purified to >95% homogeneity by Ni-chelating bead chromatography (Qiagen, Mississauga, Ontario). Recombinant SHIP C2 domain (amino acid residues 725 to 863) was expressed in E. coli transformed with a pET28C expression vector constructed as described below. Recombinant protein purified from the cell lysates by Nichelating bead chromatography was >95% pure.
In vitro SHIP enzyme assay. SHIP enzyme assays were performed in 96-well microtitre plates with 10 ng of enzyme/well in a total volume of 25 μL of 20 mM Tris HCl, pH 7.5 and 10 Mm MgCl2. SHIP enzyme was incubated with test extracts (provided in DMSO) or vehicle for 15 min at 23° C. before the addition of 100 μM inositol-1,3,4,5-tetrakisphosphate (Echelon Biosciences Inc, Salt Lake City, Utah). After 20 min at 37° C. and the amount of inorganic phosphate released assessed by the addition of Malachite Green reagent and absorbance measurement at 650 nm. SHIP2 enzyme was purchased from Echelon Biosciences (Salt Lake City, Utah) and an equivalent amount of inositol phosphatase activity was used in the in vitro enzyme assay. Enzyme data are expressed as the mean of triplicates +/−SEM. Experiments were performed at least 3 times. (FIGS. 7A and 7B).

J774.1a macrophage cells [1] = test: Macrophage TNF-α production (Assay 2); assay type: cell-based; conditions: 10 μg/mL test compound, 100 ng/mL LPS, ELISA; also: key: a ‘+’ indicates a positive result for desired activity; a ‘−’ indicates a negative result for desired activity
Description: Assay 2) Macrophage TNF-α production. J774.1a macrophage cells were treated with 10 μg/mL of test compound dissolved in solvent (e.g. cyclodextran) for 40 minutes prior to the addition of 100 ng/mL LPS. Culture supernatants were collected after 2 hr and 5 hr for TNF-α determination by ELISA.

J774.1a macrophage cells [2] = test: Macrophage TNF-α NO assay (Assay 3); assay type: cell-based; conditions: 10 μg/ml test compound, LPS, 24 hr, Griess reagent; also: key: a ‘+’ indicates a positive result for desired activity; a ‘−’ indicates a negative result for desired activity
Description: Assay 3) Macrophage TNF-α NO assay. J774.1a macrophage cells were treated with 10 μg/ml of test compound dissolved in solvent for 40 minutes prior to the addition of LPS. Culture supernatants were collected after 24 hr. for determination of NO concentration using the Griess reagent.

MM cell lines = test: In vitro Multiple Myeloma (MM) assay (Assay 7); assay type: cell-based; also: key: a ‘+’ indicates a positive result for desired activity; a ‘−’ indicates a negative result for desired activity
Description: Assay 7) In vitro Multiple Myeloma (MM) assay. The ability of SHIP activators to reduce tumor cell survival was assessed in MM cell lines treated with the test compound. The lines OPM1, OPM2, MM.1S and RPMI 8226 were plated at a density of 1×10^5 cells/mL in 200 μL of medium with various concentrations of the test compound, and viable cell numbers were determined on day 3 and day 5 by trypan blue exclusion. The lines RPMI 8226 and U266 were plated at a density of 1×10^6 cells/mL in 250 μL of medium with various concentrations of the test compound. At day 4, the medium of each culture was replaced by fresh medium containing the same concentration of test compound. At day 7, the viable cell number of each culture was determined by trypan blue exclusion.
MM cell lines were cultured in 96 well plates seeded with 3×10^4 cells suspended in 200 μL of medium along with various concentrations of test compound (and associated cyclodextran vehicle control), with LY294002 serving as a positive control in the experiments. After 24-48 hrs of culture, […] of [3H]-thymidine (GE Healthcare, Baie D'Urfe, Canada) being added for the final 8 hours. Cells were harvested and DNA associated radioactivity was measured via liquid scintillation counting using a Wallac Microbeta counter (Perkin-Elmer; Boston, Mass.).
The ability of SHIP activators to reduce tumor cell survival was assessed in multiple myeloma (MM) cell lines treated with Compound 100 or AQX-016A. The lines OPM1, OPM2, MM.1S and RPMI 8226 were plated at a density of 1×10^5 cells/mL in 200 μL of medium with various concentrations of Compound 100, and viable cell numbers were determined on day 3 and day 5 by trypan blue exclusion. The lines RPMI 8226 and U266 were plated at a density of 1×10^6 cells/mL in 250 μL of medium with various concentrations of AQX-016A. At day 4, the medium of each culture was replaced by fresh medium containing the same concentration of AQX-016A. At day 7, the viable cell number of each culture was determined by trypan blue exclusion. Experiments were performed in triplicate.
Proliferation (DNA synthesis) assays. Proliferation was measured by measuring incorporation of [^3H]-thymidine into cells. MM cell lines were cultured in 96 well plates seeded with 3×10^4 cells suspended in 200 μL, of medium along with various concentrations of Compound 100 or AQX-016A (and associated cyclodextran vehicle control), with LY294002 serving as a positive control in the indicated experiments. After 24-48 hrs of culture, 1 μCi of [^3H]-thymidine (GE Healthcare, Baie D'Urfe, Canada) being added for the final 8 hours. Plates were frozen, which also aided in cell lysis, to terminate the experiments. Cells were then harvested onto glass fibre filters using an automatic cell harvester (TomTech; Orange, Conn.) and DNA associated radioactivity was measured via liquid scintillation counting using a Wallac Microbeta counter (Perkin-Elmer; Boston, Mass.). Wells were set up in triplicate and data is expressed as mean+/−SEM.

Mast cells = test: Stimulation of mast cells by FcεRI crosslinking (Assay 4); assay type: cell-based; conditions: anti-DNP IgE, DNP-HSA
Description: Assay 4) Stimulation of mast cells by FcåRI crosslinking. Mast cells were pre-loaded overnight in BMMC medium lacking IL-3 with 0.1 μg/ml anti-DNP IgE (SPE-7, Sigma, Oakville, Ont). For calcium flux measurements, cells were incubated with 2 μM fura 2-acetoxymethyl ester (Molecular Probes, Eugene, Oreg.) in Tyrode's buffer at 23° C. for 45 min. Cells were then washed and incubated in the presence of the test compound 30 min prior to stimulation with the indicated concentration of DNP-human serum albumin (DNP-HSA). Calcium influx was monitored by spectrofluorometry as described previously. For analysis of intracellular signaling, cells were pre-loaded with anti-DNP IgE as above, pre-treated with the test compound for 30 min at 37° C. and stimulated with 20 ng/ml DNP-HSA for 5 min. Total cell lysates were then prepared and analyzed for phospho-PKB, phospho-p38^MAPK, phospho-MAPK, Grb-2 (Cell Signalling, Mississauga, Ont) and SHIP^6 by immunoblot analysis.

SMILES | Assay Number 1: SHIP enzyme assay (SHIP enzyme) | Assay Number 2: Macrophage TNF-α production (J774.1a macrophage cells [1]) | Assay Number 3: Macrophage NO (J774.1a macrophage cells [2]) | Assay Number 7: In vitro Multiple Myeloma (MM) assay (MM cell lines) | Assay Number 4: Stimulation of mast cells by FcεRI crosslinking (Mast cells)
Cc1cc(O)c(O)c2c1[C@@]1(C)CCC3C(C)(C)CCC[C@]3(C)[C@H]1C2 (stereo partly drawn) [8 Epi 16A] | + |  |  |  | 
COC(=O)c1cc(O)c(O)c2c1[C@@]1(C)CCC3C(C)(C)CCC[C@]3(C)[C@H]1C2 (some centres unmarked) [Compound 8-Epipelorol, 8-Epipelorol] | + |  |  |  | 
COC(=O)c1cc(O)c(O)c2c1[C@]1(C)CCC3C(C)(C)CCC[C@]3(C)[C@@H]1C2 (some centres unmarked) [Compound 9-Epipelorol, 9-Epipelorol] | + |  |  |  | 
CCc1cc(O)c(O)c2c1[C@]1(C)CCC3C(C)(C)CCC[C@]3(C)[C@H]1C2 (some centres unmarked) [Compound 18A, reference compound] | + | + | + |  | 
Cc1cc2c(cc1O)C[C@@H]1[C@@]3(C)CCCC(C)(C)[C@@H]3CC[C@@]21C [Compound 101] |  | + | + | + | 
CC(=O)Oc1cc(C)c2c(c1)C[C@H]1[C@@]2(C)CCC2C(C)(C)CCC[C@@]21C (some centres unmarked) [Compound 102] |  | + | + |  | 
Cc1cc(OC(=O)C(N)CCCNC(=N)N)cc2c1[C@]1(C)CCC3C(C)(C)CCC[C@]3(C)[C@H]1C2 (some centres unmarked) [Compound 105] |  | + | + |  | 
Cc1cc(OP(=O)(O)O)cc2c1[C@]1(C)CCC3C(C)(C)CCC[C@]3(C)[C@H]1C2 (some centres unmarked) [Compound 109] |  | − | + | + | 
Cc1cc(OC(=O)C(CC(=O)O)NC(=O)CCC(=O)O)cc2c1[C@]1(C)CCC3C(C)(C)CCC[C@]3(C)[C@H]1C2 (some centres unmarked) [Compound 114] |  | + | + |  | 
CC1(C)CCC[C@]2(C)[C@H]3Cc4cc(O)cc(O)c4[C@]3(C)CC[C@@H]12 [Compound 115] |  |  |  | + | 
COc1cc(O)cc2c1[C@]1(C)CC[C@H]3C(C)(C)CCC[C@]3(C)[C@H]1C2 [Compound 117] |  | + | + | + | 
COc1ccc2c(c1O)C[C@@H]1[C@@]3(C)CCCC(C)(C)[C@@H]3CC[C@@]21C [Compound 118] |  | − | + | + | 
CC1(C)CCC[C@]2(C)[C@H]3Cc4cc(O)ccc4[C@]3(C)CC[C@@H]12 [Compound 121] |  | + | + | + | 
Cc1cc(O)c2c(c1)C[C@@H]1[C@@]3(C)CCCC(C)(C)[C@@H]3CC[C@@]21C [Compound 122] |  | − | + | + | 
Cc1cc(OC(=O)C(N)Cc2cnc[nH]2)cc2c1[C@]1(C)CCC3C(C)(C)CCC[C@]3(C)[C@H]1C2 (some centres unmarked) [Compound 123] |  | + | + |  | 
Cc1cc(O)cc2c1[C@]1(C)CCC3C(C)(C)CCC[C@]3(C)[C@@H]1C2 (some centres unmarked) [Compound 124] |  | + | + | + | +
Cc1cc(O)cc2c1[C@@]1(C)CCC3C(C)(C)CCC[C@]3(C)[C@H]1C2 (some centres unmarked) [Compound 125] |  | + | + | + | +
COc1cc(C)c2c(c1O)C[C@@H]1[C@@]3(C)CCCC(C)(C)[C@@H]3CC[C@@]21C [Compound 129] |  | − | + |  | 
CC1(C)CCC[C@@]2(C)C1CC[C@@]1(C)c3c(C(=O)O)cc(O)c(O)c3C[C@@H]12 (some centres unmarked) [Desmethylpelorol, reference compound] | + | + | + |  | 
COC(=O)c1cc(O)c(O)c2c1[C@]1(C)CCC3C(C)(C)CCC[C@]3(C)[C@H]1C2 (some centres unmarked) [Pelorol, pelorol] | + |  |  |  | 
